Here are results for 17 molecules from PubChem BioAssay (NCI).

SMILES strings stand for the structures.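 Step 1: Grow cells in 96-well plates. Step 2: Expose to compound for 48 hours at 5 concentrations. Step 3: Interpolate endpoints linearly; if unreached, use highest concentration. The concentration for full growth arrest is given as TGI.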 Some results are limits rather than exact numbers.

The first test has as its system CAKI-1 renal. Put plainly: growth of human tumour cells (NCI), 48 h.
Turning to `Cc1nn(C(=O)Cc2ccccc2)c2c1C(c1ccc(Cl)cc1)SC(N)=N2` (stereo unspecified), the TGI is more than 100 µM.

The molecule `Nc1nc(NCC2(CO)CC2)cc(=O)[nH]1` gave a TGI of more than 100 µM.

On to `S=c1[nH]c(=S)c2nnn(-c3ccccc3)c2[nH]1`, for which the TGI is more than 100 µM.

`Cc1ccc(-c2n[nH]c(=O)n2/N=C\c2ccc([N+](=O)[O-])cc2)cc1` showed a TGI of more than 100 µM.

In the case of `COc1ccc2c(c1)C(=O)OCCC2`, the TGI was more than 100 µM.

As for `COc1ccc2c(c1)nc1n2C(c2c(Cl)cccc2Cl)SC1` (stereo unspecified), the TGI was more than 100 µM.

In turn, `CCOC(=O)c1c(NC(=O)OC)c(C#N)c2n1CCCCC2` had a TGI of more than 100 µM.

As to `COc1ccc(-c2nc(-c3cc4c(ccc5ccccc54)oc3=O)cs2)cc1`, the TGI is more than 100 µM.

Molecule `Cc1cc(C)c(C(=O)c2nnc3ccccc3c2N)c(C)c1` yielded a TGI of 75.9 µM.

`CC1=CCC(C)=Nc2nc3ccccc3n21`: the TGI was more than 100 µM.

In the case of `N#Cc1[nH]c(=S)[nH]c1N`, the TGI was more than 100 µM.

As to `Cc1ccccc1N/C(=C(/C(Cl)=C(Cl)Cl)[N+](=O)[O-])n1nnc2ccccc21`, the TGI turned out to be 34.9 µM.

Molecule `CNS(=O)(=O)NNS(=O)(=O)c1ccc(Br)cc1` returned a TGI of more than 100 µM.

For `CCC1CCc2c(c(=O)oc3c2cc(OC)c2cccc(OC)c23)C1` (stereo unspecified), the TGI is more than 100 µM.

The molecule `COC(=O)C1=C(C(=O)Nc2cccnc2Cl)N(c2ccc(OC)cc2[N+](=O)[O-])C(c2ccc(C)cc2)=CC1c1ccc(OC)cc1OC` (stereo unspecified) yielded a TGI of more than 100 µM.

In another test the test system is CCRF-CEM leukemia. Put plainly: growth of human tumour cells (NCI), 48 h.
In turn, `Cc1nn(C(=O)Cc2ccccc2)c2c1C(c1ccc(Cl)cc1)SC(N)=N2` (stereo unspecified) had a TGI of more than 100 µM.

On to `Nc1nc(NCC2(CO)CC2)cc(=O)[nH]1`, for which the TGI is more than 100 µM.

For `S=c1[nH]c(=S)c2nnn(-c3ccccc3)c2[nH]1`, the TGI was more than 100 µM.

As for `Cc1ccc(-c2n[nH]c(=O)n2/N=C\c2ccc([N+](=O)[O-])cc2)cc1`, the TGI is more than 100 µM.

In turn, `COc1ccc2c(c1)C(=O)OCCC2` returned a TGI of more than 100 µM.

Take `COc1ccc(-n2cnn3c(=O)c4cn[nH]c4nc23)cc1`: the TGI is more than 10 µM.

As for `COc1ccc2c(c1)nc1n2C(c2c(Cl)cccc2Cl)SC1` (stereo unspecified), the TGI is more than 100 µM.

As to `CCOC(=O)c1c(NC(=O)OC)c(C#N)c2n1CCCCC2`, the TGI is more than 100 µM.

`COc1ccc(-c2nc(-c3cc4c(ccc5ccccc54)oc3=O)cs2)cc1` displayed a TGI of more than 100 µM.

Consider `Cc1cc(C)c(C(=O)c2nnc3ccccc3c2N)c(C)c1`, for which the TGI is more than 100 µM.

On to `CC1=CCC(C)=Nc2nc3ccccc3n21`, for which the TGI is more than 100 µM.

Consider `N#Cc1[nH]c(=S)[nH]c1N`, for which the TGI is more than 100 µM.

Molecule `Cc1ccccc1N/C(=C(/C(Cl)=C(Cl)Cl)[N+](=O)[O-])n1nnc2ccccc21` displayed a TGI of more than 100 µM.

On to `CNS(=O)(=O)NNS(=O)(=O)c1ccc(Br)cc1`, for which the TGI was more than 100 µM.

In the case of `Cc1ccc(NC(=O)CSc2nnc(-c3ccc(N=Cc4ccc(Cl)cc4)cc3)o2)cc1`, the TGI is more than 100 µM.

`CCC1CCc2c(c(=O)oc3c2cc(OC)c2cccc(OC)c23)C1` (stereo unspecified) came in with a TGI of more than 100 µM.

Regarding `COC(=O)C1=C(C(=O)Nc2cccnc2Cl)N(c2ccc(OC)cc2[N+](=O)[O-])C(c2ccc(C)cc2)=CC1c1ccc(OC)cc1OC` (stereo unspecified), the TGI is more than 36.8 µM.

In a further test the test system is HCC-2998 colon. Put plainly: growth of human tumour cells (NCI), 48 h.
For the molecule `Cc1nn(C(=O)Cc2ccccc2)c2c1C(c1ccc(Cl)cc1)SC(N)=N2` (stereo unspecified), the TGI was more than 100 µM.

On to `Nc1nc(NCC2(CO)CC2)cc(=O)[nH]1`, for which the TGI is more than 100 µM.

In turn, `S=c1[nH]c(=S)c2nnn(-c3ccccc3)c2[nH]1` registered a TGI of more than 100 µM.

Take `Cc1ccc(-c2n[nH]c(=O)n2/N=C\c2ccc([N+](=O)[O-])cc2)cc1`: the TGI is more than 100 µM.

On to `COc1ccc2c(c1)C(=O)OCCC2`, for which the TGI was more than 100 µM.

For `COc1ccc(-n2cnn3c(=O)c4cn[nH]c4nc23)cc1`, the TGI is more than 10 µM.

`COc1ccc2c(c1)nc1n2C(c2c(Cl)cccc2Cl)SC1` (stereo unspecified): the TGI is more than 86.8 µM.

Regarding `CCOC(=O)c1c(NC(=O)OC)c(C#N)c2n1CCCCC2`, the TGI was more than 100 µM.

For the molecule `COc1ccc(-c2nc(-c3cc4c(ccc5ccccc54)oc3=O)cs2)cc1`, the TGI is more than 100 µM.

In the case of `N#Cc1[nH]c(=S)[nH]c1N`, the TGI is more than 100 µM.

With `Cc1ccccc1N/C(=C(/C(Cl)=C(Cl)Cl)[N+](=O)[O-])n1nnc2ccccc21`, the TGI was found to be 35.8 µM.

`CNS(=O)(=O)NNS(=O)(=O)c1ccc(Br)cc1`: the TGI is more than 100 µM.

On to `CCC1CCc2c(c(=O)oc3c2cc(OC)c2cccc(OC)c23)C1` (stereo unspecified), for which the TGI is more than 100 µM.

`COC(=O)C1=C(C(=O)Nc2cccnc2Cl)N(c2ccc(OC)cc2[N+](=O)[O-])C(c2ccc(C)cc2)=CC1c1ccc(OC)cc1OC` (stereo unspecified) displayed a TGI of 27.8 µM.

A further test relates to HCT-116 colon. Put plainly: growth of human tumour cells (NCI), 48 h.
`Cc1nn(C(=O)Cc2ccccc2)c2c1C(c1ccc(Cl)cc1)SC(N)=N2` (stereo unspecified) displayed a TGI of more than 100 µM.

The molecule `Nc1nc(NCC2(CO)CC2)cc(=O)[nH]1` yielded a TGI of more than 100 µM.

`S=c1[nH]c(=S)c2nnn(-c3ccccc3)c2[nH]1` returned a TGI of 4.49 µM.

In turn, `Cc1ccc(-c2n[nH]c(=O)n2/N=C\c2ccc([N+](=O)[O-])cc2)cc1` showed a TGI of more than 100 µM.

In turn, `COc1ccc2c(c1)C(=O)OCCC2` yielded a TGI of more than 100 µM.

In turn, `COc1ccc(-n2cnn3c(=O)c4cn[nH]c4nc23)cc1` gave a TGI of more than 10 µM.

The molecule `COc1ccc2c(c1)nc1n2C(c2c(Cl)cccc2Cl)SC1` (stereo unspecified) yielded a TGI of more than 81.2 µM.

`CCOC(=O)c1c(NC(=O)OC)c(C#N)c2n1CCCCC2` registered a TGI of more than 100 µM.

Consider `COc1ccc(-c2nc(-c3cc4c(ccc5ccccc54)oc3=O)cs2)cc1`, for which the TGI is more than 100 µM.

Take `Cc1cc(C)c(C(=O)c2nnc3ccccc3c2N)c(C)c1`: the TGI amounted to 23.6 µM.

In turn, `CC1=CCC(C)=Nc2nc3ccccc3n21` came in with a TGI of more than 100 µM.

With `N#Cc1[nH]c(=S)[nH]c1N`, the TGI was more than 100 µM.

As for `Cc1ccccc1N/C(=C(/C(Cl)=C(Cl)Cl)[N+](=O)[O-])n1nnc2ccccc21`, the TGI was more than 100 µM.

As for `CNS(=O)(=O)NNS(=O)(=O)c1ccc(Br)cc1`, the TGI is more than 100 µM.

As to `Cc1ccc(NC(=O)CSc2nnc(-c3ccc(N=Cc4ccc(Cl)cc4)cc3)o2)cc1`, the TGI is more than 100 µM.

As for `CCC1CCc2c(c(=O)oc3c2cc(OC)c2cccc(OC)c23)C1` (stereo unspecified), the TGI is more than 100 µM.

In the case of `COC(=O)C1=C(C(=O)Nc2cccnc2Cl)N(c2ccc(OC)cc2[N+](=O)[O-])C(c2ccc(C)cc2)=CC1c1ccc(OC)cc1OC` (stereo unspecified), the TGI worked out at 98.7 µM.

For another test, the system named is KM12 colon. Put plainly: growth of human tumour cells (NCI), 48 h.
As for `Cc1nn(C(=O)Cc2ccccc2)c2c1C(c1ccc(Cl)cc1)SC(N)=N2` (stereo unspecified), the TGI is more than 100 µM.

As to `Nc1nc(NCC2(CO)CC2)cc(=O)[nH]1`, the TGI is more than 100 µM.

`S=c1[nH]c(=S)c2nnn(-c3ccccc3)c2[nH]1`: the TGI is more than 100 µM.

For the molecule `Cc1ccc(-c2n[nH]c(=O)n2/N=C\c2ccc([N+](=O)[O-])cc2)cc1`, the TGI is more than 100 µM.

Consider `COc1ccc2c(c1)C(=O)OCCC2`, for which the TGI is more than 100 µM.

In the case of `COc1ccc(-n2cnn3c(=O)c4cn[nH]c4nc23)cc1`, the TGI is more than 10 µM.

As to `COc1ccc2c(c1)nc1n2C(c2c(Cl)cccc2Cl)SC1` (stereo unspecified), the TGI is more than 100 µM.

On to `CCOC(=O)c1c(NC(=O)OC)c(C#N)c2n1CCCCC2`, for which the TGI was more than 100 µM.
